Reference: patent US11754547B2, “Biorecognition elements for detection of fungi and bacteria in fuel systems” (priority 2020, dated 2023)

What was measured:
Assay in all cases: Western blot of phage-displayed peptide BRE binding to biotinylated target peptide
[1] = test system: Gor-Fasciclin (SEQ. ID No. 58), Gordonia-Fasciclin; details: phage clone with biotinylated target peptide, streptavidin bead pull-down; FIG. 5
Source text: (§1) Recombinant phage clones were selected using X-Gal/IPTG, which produced a blue color on phage infected E. coli colonies. After the amplification of multiple phage isolates carrying a single heptapeptide sequence (i.e., monoclonal phages), genomic DNA was isolated and sequenced to determine the aa sequences of the peptide BREs. Isolated monoclonal phages were sequenced after each round of selection. After four rounds of selection, the phage pool was enriched for target-binding phages with specific sequences. […] The binding of phages displaying specific peptide BREs to the target was assessed by Western blot analysis. Monoclonal target-specific bacteriophages were incubated with biotinylated target peptide epitope under conditions similar to those used in biopanning. The resulting phage-target complexes were recovered using streptavidin-coated magnetic beads, and the phage-target complexes were resolved via SDS-PAGE and detected by Western blot using antibodies against the M13 phage capsid and the biotin molecule attached to the specific target. Western blotting was performed by preparing a 200 μL solution with each of the phage clones at a concentration of 1×10^11 pfu/mL in 1×TBS, pH 7.5. Then, 10 μL of biotinylated target peptide of concentration 1 mg/mL was added to each phage solution and incubated at 25° C. for 1 hr. Phage-biotin target complexes were captured and pull-down with 25 μL of streptavidin-coated beads, and the captured complexes washed five times with 1×TBST. The pelleted complexes were re-suspended in 20 μL of 2× Laemmli Buffer, heated to 95° C. for 5 min, and resolved in a 14% SDS-PAGE gel. Proteins were blotted to a nitrocellulose membrane and blocked with TBST containing 5% BSA. To detect phages, a 1:2000 dilution of rabbit anti-M13 phage antibody (primary antibody) followed by a 1:5000 dilution of alkaline phosphatase (AP)-conjugated goat anti-rabbit antibody was used. For detection of biotinylated target, a 1:2000 dilution of AP-conjugated goat anti-biotin antibody was used. For colorimetric visualization, BCIP/NBT reagent was used. […]

[2] = test system: ALK-P3 (SEQ. ID No. 1), P450 Alkane Hydroxylase; design: species or system fungi; details: phage clone with biotinylated target peptide, streptavidin bead pull-down; FIG. 4
Sequence of ALK-P3 (SEQ. ID No. 1), P450 Alkane Hydroxylase (as listed by the source): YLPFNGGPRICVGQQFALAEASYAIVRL
Source text: as §1, with “hr.” for “hr. Phage-biotin target complexes were captured and pull-down with 25 μL of streptavidin-coated beads, and the captured complexes washed five times with 1×TBST. The pelleted complexes were re-suspended in 20 μL of 2× Laemmli Buffer, heated to 95° C. for 5 min, and resolved in a 14% SDS-PAGE gel. Proteins were blotted to a nitrocellulose membrane and blocked with TBST containing 5% BSA. To detect phages, a 1:2000 dilution of rabbit anti-M13 phage antibody (primary antibody) followed by a 1:5000 dilution of alkaline phosphatase (AP)-conjugated goat anti-rabbit antibody was used. For detection of biotinylated target, a 1:2000 dilution of AP-conjugated goat anti-biotin antibody was used. For colorimetric visualization, BCIP/NBT reagent was used.”

[3] = test system: CHI-P1 (SEQ. ID No. 25), Chitinase; design: species or system fungi; details: phage clone with biotinylated target peptide, streptavidin bead pull-down; FIG. 4
Source text: as §1, with “hr.” for “hr. Phage-biotin target complexes were captured and pull-down with 25 μL of streptavidin-coated beads, and the captured complexes washed five times with 1×TBST. The pelleted complexes were re-suspended in 20 μL of 2× Laemmli Buffer, heated to 95° C. for 5 min, and resolved in a 14% SDS-PAGE gel. Proteins were blotted to a nitrocellulose membrane and blocked with TBST containing 5% BSA. To detect phages, a 1:2000 dilution of rabbit anti-M13 phage antibody (primary antibody) followed by a 1:5000 dilution of alkaline phosphatase (AP)-conjugated goat anti-rabbit antibody was used. For detection of biotinylated target, a 1:2000 dilution of AP-conjugated goat anti-biotin antibody was used. For colorimetric visualization, BCIP/NBT reagent was used.”

Sequence of Gor-Fasciclin (SEQ. ID No. 58), Gordonia-Fasciclin (as listed by the source): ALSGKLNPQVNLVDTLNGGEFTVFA

Substance	binding to Gor-Fasciclin (SEQ. ID No. 58) target, Western blot [1]	also measured
TWTLARP (Artificial Sequence Obtained Through Biopanning) [SEQ. ID No. 59]	specific binding	
YVPEWVS (Artificial Sequence Obtained Through Biopanning) [SEQ. ID No. 61]	specific binding	
WSLGYTG (Artificial Sequence Obtained Through Biopanning) [SEQ. ID No. 2]		binding to ALK-P3 (SEQ. ID No. 1) target, Western blot [2]: specific binding
MPPHGDR (Artificial Sequence Obtained Through Biopanning) [SEQ. ID No. 26]		binding to CHI-P1 (SEQ. ID No. 25) target, Western blot [3]: specific binding
RSLGYTG (Artificial Sequence Obtained Through Biopanning) [SEQ. ID No. 60]	specific binding	
